Source: US6369083B1, “2-methoxyimino-2 (pyrinyloxymethyl) phenyl acetamides with polyether derivatives on the pyridine ring” (Dow AgroSciences LLC, priority 1998, dated 2002)

Assays:
Type in all cases: in vivo
[1] = tested on: Leptosphaeria nodorum; assay: Glume blotch of wheat (LEPTNO); settings: wheat (cultivar Monon), sprayed at 100 ppm, inoculated after 24 hours
Procedure: Compound Formulation: […] Final treatment volumes were obtained by adding nine volumes 0.05kOO aqueous Tween-20 or Triton X-100, depending upon the pathogen. Glume blotch of wheat (Leptosphaeria nodorum-[…]): Wheat (cultivar Monon) was grown from seed in a soilless peat-based potting mixture (Metromix) until the seedlings were 1-2 leaf (BBCH 12). These plants were then sprayed to run off with the test compound at a rate of 100 ppm. After 24 hours the test plants were inoculated with an aqueous spore suspension of Leptosphaeria nodorum. The plants were then transferred to the greenhouse until disease developed on the untreated control plants. Brown rust (Puccinia recondita-PUCCRT): Wheat (cultivar Monon) was grown from seed in a soilless peat-based potting mixture (Metromix) until the seedlings were 1-2 leaf (BBCH 12). These plants were then sprayed to run off with the test compound at a rate of 100 ppm. After 24 hours the test plants were inoculated with an aqueous spore suspension of Puccinia recondita. The plants were then transferred to the greenhouse until disease developed on the untreated control plants. The following table presents the activity of typical compounds of the present invention when evaluated in these experiments. The effectiveness of the test compounds in controlling disease was rated using the following scale: […]

[2] = tested on: Erysiphe graminis; assay: Powdery Mildew of Wheat (ERYSGT); settings: wheat (cultivar Monon), inoculated, sprayed at 25 ppm after 48 hours
Procedure: Compound Formulation: […] Final treatment volumes were obtained by adding nine volumes 0.05kOO aqueous Tween-20 or Triton X-100, depending upon the pathogen. Powdery Mildew of Wheat (Erysiphe graminis-[…]): Wheat (cultivar Monon) was grown in a soilless peat-based potting mixture (Metromix) until the seedlings were 1-2 leaf (BBCH 12). These plants were then inoculated with Erysiphe graminis by dusting spores from stock plants onto the test plants. After 48 hours the plants were sprayed to run off with the test compound at a rate of 25 ppm and then kept in the greenhouse until disease developed on the untreated control plants. The following table presents the activity of typical compounds of the present invention when evaluated in these experiments. The effectiveness of the test compounds in controlling disease was rated using the following scale: […]

[3] = tested on: Plasmopara viticola; assay: Downy Mildew of Grape (PLASVI), 96 hour protectant; settings: grape vines (cultivar Carignane), sprayed at 100 ppm, inoculated after 96 hours (protectant)
Procedure: Compound Formulation: […] Final treatment volumes were obtained by adding nine volumes 0.05kOO aqueous Tween-20 or Triton X-100, depending upon the pathogen. Downy Mildew of Grape (Plasmogara viticola-[…]) (96 Hour Protectant): Vines (cultivar Carignane) were grown from seed in a soilless peat-based potting mixture (Metromix) until the seedlings were 10-20 cm tall. These plants were then sprayed to run off with the test compound at a rate of 100 ppm. After 96 hours the test plants were inoculated by spraying with an aqueous sporangia suspension of Plasmopara viticola. The plants were then transferred to the greenhouse until disease developed on the untreated control plants. The following table presents the activity of typical compounds of the present invention when evaluated in these experiments. The effectiveness of the test compounds in controlling disease was rated using the following scale: […]

[4] = tested on: Septoria tritici; assay: Septoria leaf spot (SEPTTR); settings: wheat (cultivar Monon), sprayed at 100 ppm, inoculated after 24 hours
Procedure: Compound Formulation: […] Final treatment volumes were obtained by adding nine volumes 0.05kOO aqueous Tween-20 or Triton X-100, depending upon the pathogen. Septoria leaf spot (Septoria tritici-[…]): Wheat (cultivar Monon) was grown from seed in a soilless peat-based potting mixture (Metromix) until the seedlings were 1-2 leaf (BECH 12). These plants were then sprayed to run off with the test compound at a rate of 100 ppm. After 24 hours the test plants were inoculated with an aqueous spore suspension of Septoria tritici. The plants were then transferred to the greenhouse until disease developed on the untreated control plants. The following table presents the activity of typical compounds of the present invention when evaluated in these experiments. The effectiveness of the test compounds in controlling disease was rated using the following scale: […]

## CCOCCCOc1cccc(OCc2ccccc2C(=NOC)C(=O)NC)n1 [Compound 55]
[1]
  LEPTNO control of plant disease: + (+ = 25-74% control of plant disease)
[2]
  ERYSGT control of plant disease: + (+ = 25-74% control of plant disease)

## CCCOCCOCCOc1nc(OCc2ccccc2C(=NOC)C(=O)NC)c(Cl)cc1Cl [Compound 19]
[3]
  PLASVI control of plant disease: + (+ = 25-74% control of plant disease)
[1]
  LEPTNO control of plant disease: ++ (++ = 75-100 % control of plant disease)
[2]
  ERYSGT control of plant disease: + (+ = 25-74% control of plant disease)

## CCCCCOCCOc1cccc(OCc2c(F)cccc2C(=NOC)C(=O)NC)n1 [Compound 75]
[4]
  SEPTTR control of plant disease: ++ (++ = 75-100 % control of plant disease)

## CCCCC(CC)COCCOc1cccc(OCc2ccccc2C(=NOC)C(=O)NC)n1 (stereo not drawn) [Compound 56]
[3]
  PLASVI control of plant disease: ++ (++ = 75-100 % control of plant disease)
[4]
  SEPTTR control of plant disease: ++ (++ = 75-100 % control of plant disease)

## CNC(=O)C(=NOC)c1ccccc1COc1cccc(OC(COC)OC)n1 (stereo not drawn) [Compound 22]
[3]
  PLASVI control of plant disease: + (+ = 25-74% control of plant disease)
[1]
  LEPTNO control of plant disease: + (+ = 25-74% control of plant disease)
[2]
  ERYSGT control of plant disease: ++ (++ = 75-100 % control of plant disease)

## CNC(=O)C(=NOC)c1ccccc1COc1cccc(SCc2ccc(OC)cc2)n1 [Compound 57]
[4]
  SEPTTR control of plant disease: ++ (++ = 75-100 % control of plant disease)

## CNC(=O)C(=NOC)c1cccc(F)c1COc1cccc(OCCCOC(C)C)n1 [Compound 79]
[4]
  SEPTTR control of plant disease: ++ (++ = 75-100 % control of plant disease)

## CCOc1ccc(Oc2cccc(OCc3ccccc3C(=NOC)C(=O)NC)n2)cc1 [Compound 68]
[3]
  PLASVI control of plant disease: ++ (++ = 75-100 % control of plant disease)
[4]
  SEPTTR control of plant disease: + (+ = 25-74% control of plant disease)

## C=CC(COC)Oc1cccc(OCc2ccccc2C(=NOC)C(=O)NC)n1 (stereo not drawn) [Compound 72]
[4]
  SEPTTR control of plant disease: − (− = 0-24% control of plant disease)

## CCOCCCCOc1cccc(OCc2ccccc2C(=NOC)C(=O)NC)n1 [Compound 65]
[3]
  PLASVI control of plant disease: ++ (++ = 75-100 % control of plant disease)
[4]
  SEPTTR control of plant disease: ++ (++ = 75-100 % control of plant disease)

## CNC(=O)C(=NOC)c1ccccc1COc1cccc(Oc2ccccc2OC)n1 [Compound 81]
[4]
  SEPTTR control of plant disease: + (+ = 25-74% control of plant disease)

## CNC(=O)C(=NOC)c1ccccc1COc1cccc(OCCCOC(C)C)n1 [Compound 54]
[3]
  PLASVI control of plant disease: ++ (++ = 75-100 % control of plant disease)
[1]
  LEPTNO control of plant disease: ++ (++ = 75-100 % control of plant disease)
[2]
  ERYSGT control of plant disease: ++ (++ = 75-100 % control of plant disease)

## CNC(=O)C(=NOC)c1cccc(Cl)c1COc1cccc(OCCCOC(C)C)n1 [Compound 80]
[4]
  SEPTTR control of plant disease: ++ (++ = 75-100 % control of plant disease)

## CCOc1ccc(Sc2cccc(OCc3ccccc3C(=NOC)C(=O)NC)n2)cc1 [Compound 85]
[4]
  SEPTTR control of plant disease: − (− = 0-24% control of plant disease)

## CNC(=O)C(=NOC)c1ccccc1COc1cccc(OCc2ccc(OC)cc2)n1 [Compound 83]
[4]
  SEPTTR control of plant disease: ++ (++ = 75-100 % control of plant disease)

## CNC(=O)C(=NOC)c1ccccc1COc1cccc(OCCOCC2CO2)n1 (stereo not drawn) [Compound 74]
[4]
  SEPTTR control of plant disease: ++ (++ = 75-100 % control of plant disease)

## Benzeneacetamide, 2-[[[6-(2-(2-ethoxyethoxy)ethoxy) -2-pyridinyl]oxy]methyl]-α-(methoxyimino)-N-methyl- [Compound 21]
[3]
  PLASVI control of plant disease: ++ (++ = 75-100 % control of plant disease)
[1]
  LEPTNO control of plant disease: + (+ = 25-74% control of plant disease)

## CCCCCCOCCOc1cccc(OCc2ccccc2C(=NOC)C(=O)NC)n1 [Compound 70]
[3]
  PLASVI control of plant disease: + (+ = 25-74% control of plant disease)
[4]
  SEPTTR control of plant disease: + (+ = 25-74% control of plant disease)

## CNC(=O)C(=NOC)c1ccccc1COc1cccc(OCc2ccccc2OC)n1 [Compound 82]
[4]
  SEPTTR control of plant disease: ++ (++ = 75-100 % control of plant disease)

## CCOCCOCCOc1nc(OCc2ccccc2C(=NOC)C(=O)NC)c(Cl)cc1Cl [Compound 16]
[3]
  PLASVI control of plant disease: ++ (++ = 75-100 % control of plant disease)
[1]
  LEPTNO control of plant disease: + (+ = 25-74% control of plant disease)
[2]
  ERYSGT control of plant disease: ++ (++ = 75-100 % control of plant disease)

## CCOCCOc1nc(OCc2ccccc2C(=NOC)C(=O)NC)ccc1Cl [Compound 24, Benzeneacetamide, 2-[[[5-chloro-6-(2-ethoxyethoxy)-2-pyridinyl]oxy]methyl]-α-(methoxyimino)-N-methyl-]
[3]
  PLASVI control of plant disease: ++ (++ = 75-100 % control of plant disease)
[1]
  LEPTNO control of plant disease: + (+ = 25-74% control of plant disease)
[2]
  ERYSGT control of plant disease: ++ (++ = 75-100 % control of plant disease)

## CNC(=O)C(=NOC)c1ccccc1COc1cccc(OCCCCCOCc2ccccc2)n1 [Compound 66]
[3]
  PLASVI control of plant disease: ++ (++ = 75-100 % control of plant disease)
[4]
  SEPTTR control of plant disease: ++ (++ = 75-100 % control of plant disease)

## CNC(=O)C(=NOC)c1ccccc1COc1cccc(OCCOC2CCCCC2)n1 [Compound 62]
[3]
  PLASVI control of plant disease: ++ (++ = 75-100 % control of plant disease)
[4]
  SEPTTR control of plant disease: + (+ = 25-74% control of plant disease)

## CCOCCCOc1cccc(OCc2c(F)cccc2C(=NOC)C(=O)NC)n1 [Compound 77]
[4]
  SEPTTR control of plant disease: ++ (++ = 75-100 % control of plant disease)

## CCCOCCOc1cccc(OCc2c(Cl)cccc2C(=NOC)C(=O)NC)n1 [Compound 60]
[3]
  PLASVI control of plant disease: ++ (++ = 75-100 % control of plant disease)
[4]
  SEPTTR control of plant disease: ++ (++ = 75-100 % control of plant disease)

## CCCCCOCCOc1cccc(OCc2ccccc2C(=NOC)C(=O)NC)n1 [Compound 61]
[3]
  PLASVI control of plant disease: ++ (++ = 75-100 % control of plant disease)
[4]
  SEPTTR control of plant disease: ++ (++ = 75-100 % control of plant disease)

## CNC(=O)C(=NOC)c1ccccc1COc1cccc(OCCOC2CCC2)n1 [Compound 58]
[3]
  PLASVI control of plant disease: ++ (++ = 75-100 % control of plant disease)
[4]
  SEPTTR control of plant disease: ++ (++ = 75-100 % control of plant disease)

## CCOCCCOc1cccc(OCc2c(Cl)cccc2C(=NOC)C(=O)NC)n1 [Compound 78]
[4]
  SEPTTR control of plant disease: ++ (++ = 75-100 % control of plant disease)

## CNC(=O)C(=NOC)c1ccccc1COc1cccc(OCCCOCCCOC)n1 [Compound 71]
[4]
  SEPTTR control of plant disease: − (− = 0-24% control of plant disease)

## CNC(=O)C(=NOC)c1ccccc1COc1cccc(OCCOC(CCC#N)OC)n1 (stereo not drawn) [Compound 73]
[4]
  SEPTTR control of plant disease: − (− = 0-24% control of plant disease)

## CCOc1ccccc1Oc1cccc(OCc2ccccc2C(=NOC)C(=O)NC)n1 [Compound 64]
[3]
  PLASVI control of plant disease: ++ (++ = 75-100 % control of plant disease)
[4]
  SEPTTR control of plant disease: ++ (++ = 75-100 % control of plant disease)

## CCCCCOCCOc1cccc(OCc2c(Cl)cccc2C(=NOC)C(=O)NC)n1 [Compound 76]
[4]
  SEPTTR control of plant disease: ++ (++ = 75-100 % control of plant disease)
